Counter-ions that a name gives are not always drawn.
Biological target: T1, HCV polymerase (Hepatitis C virus genotype 1b, UniProt P26663)
T1 construct: a region encoding NS5B (591 amino acids; J Virol 1991 Mar, 65(3), 1105-13) was amplified by PCR; 6 His (N); made in house; host or cells: Escherichia coli
Experiment: biochemical
Conditions: read-out: HCV polymerase inhibitory activity IC50

T1 sequence (P26663 2420-3010): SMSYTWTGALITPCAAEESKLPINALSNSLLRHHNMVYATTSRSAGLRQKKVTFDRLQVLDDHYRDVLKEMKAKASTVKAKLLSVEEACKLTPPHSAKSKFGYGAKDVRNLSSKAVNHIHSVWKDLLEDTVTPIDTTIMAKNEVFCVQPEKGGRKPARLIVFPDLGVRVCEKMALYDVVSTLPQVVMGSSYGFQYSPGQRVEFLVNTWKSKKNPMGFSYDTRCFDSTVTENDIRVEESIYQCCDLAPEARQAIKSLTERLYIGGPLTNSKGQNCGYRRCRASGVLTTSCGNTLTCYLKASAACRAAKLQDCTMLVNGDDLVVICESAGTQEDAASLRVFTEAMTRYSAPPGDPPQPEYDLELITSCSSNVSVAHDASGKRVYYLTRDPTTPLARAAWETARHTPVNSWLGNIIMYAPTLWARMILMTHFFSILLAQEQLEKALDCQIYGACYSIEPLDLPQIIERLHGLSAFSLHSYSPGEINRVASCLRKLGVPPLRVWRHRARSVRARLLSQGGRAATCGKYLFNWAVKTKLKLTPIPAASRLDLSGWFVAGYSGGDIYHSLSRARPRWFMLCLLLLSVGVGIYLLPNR

Row | Structure (SMILES) | IC50 [nM]
1 | CC(C)NC(=O)c1ccc(-c2ccc(F)c(Cl)c2)c(COc2ccc(-c3nc4cc(C(=O)O)ccc4n3C3CCCCC3)c(F)c2)c1 [Example 399, 2-{4-[2-(3-chloro-4-fluorophenyl)-5-(isopropylcarbamoyl)-benzyloxy]-2-fluorophenyl}-1-cyclohexylbenzimidazole-5-carboxylic acid hydrochloride] | 32
2 | CC(C)NS(=O)(=O)c1ccc(-c2ccc(Cl)cc2)c(COc2ccc(-c3nc4cc(C(=O)O)ccc4n3C3CCCCC3)c(F)c2)c1 [Example 409, 2-{4-[2-(4-chlorophenyl)-5-(isopropylaminosulfonyl)benzyloxy]-2-fluorophenyl}-1-cyclohexylbenzimidazole-5-carboxylic acid hydrochloride] | 20
3 | CN(C)C(=O)c1ccc(-c2ccc(Cl)cc2)c(COc2ccc(-c3nc4cc(C(=O)O)ccc4n3C3CCCC3)c(F)c2)c1 [Example 410, 2-{4-[2-(4-chlorophenyl)-5-(dimethylcarbamoyl)benzyloxy]-2-fluorophenyl}-1-cyclopentylbenzimidazole-5-carboxylic acid hydrochloride] | 18
4 | O=C(O)c1ccc2c(c1)nc(-c1ccc(OCc3cc(C(=O)N4CCC(O)CC4)ccc3-c3ccc(Cl)cc3)cc1F)n2C1CCCC1 [Example 411, 2-{4-[2-(4-chlorophenyl)-5-(4-hydroxypiperidin-1-ylcarbonyl)-benzyloxy]-2-fluorophenyl}-1-cyclopentylbenzimidazole-5-carboxylic acid hydrochloride] | 15
5 | CC(C)NC(=O)c1ccc(-c2ccc(Cl)cc2)c(COc2ccc(-c3nc4cc(C(=O)O)ccc4n3C3CCCC3)c(F)c2)c1 [Example 412, 2-{4-[2-(4-chlorophenyl)-5-(isopropylcarbamoyl)benzyloxy]-2-fluorophenyl}-1-cyclopentylbenzimidazole-5-carboxylic acid hydrochloride] | 19
6 | CC(C)NC(=O)c1ccc(-c2ccc(Cl)cc2)c(COc2ccc(-c3nc4cc(C(=O)O)ccc4n3C3CCCC3)cc2)c1 [Example 413, 2-{4-[2-(4-chlorophenyl)-5-(isopropylcarbamoyl)benzyloxy]phenyl}-1-cyclopentylbenzimidazole-5-carboxylic acid hydrochloride] | 26
7 | CN(C)C(=O)c1ccc(-c2ccc(Cl)cc2)c(COc2ccc(-c3nc4cc(C(=O)O)ccc4n3C3CCCC3)cc2)c1 [Example 414, 2-{4-[2-(4-chlorophenyl)-5-(dimethylcarbamoyl)benzyloxy]phenyl}-1-cyclopentylbenzimidazole-5-carboxylic acid hydrochloride] | 24
8 | O=C(O)c1ccc2c(c1)nc(-c1ccc(OCc3cc(C(=O)N4CCC(O)CC4)ccc3-c3ccc(Cl)cc3)cc1)n2C1CCCC1 [Example 415, 2-{4-[2-(4-chlorophenyl)-5-(4-hydroxypiperidin-1-ylcarbonyl)benzyloxy]phenyl}-1-cyclopentylbenzimidazole-5-carboxylic acid hydrochloride] | 19
9 | CC(C)NC(=O)c1ccc(-c2ccc(Cl)cc2)c(COc2ccc(-c3nc4cc(C(=O)O)ccc4n3C3CCSCC3)cc2)c1 [Example 416, 2-{4-[2-(4-chlorophenyl)-5-(isopropylcarbamoyl)benzyloxy]phenyl}-1-(tetrahydrothiopyran-4-yl)benzimidazole-5-carboxylic acid hydrochloride] | 24
10 | O=C(O)c1ccc2c(c1)nc(-c1ccc(OCc3cc(C(=O)N4CCCC4)ccc3-c3ccc(Cl)cc3)cc1)n2C1CCSCC1 [Example 417, 2-{4-[2-(4-chlorophenyl)-5-(pyrrolidin-1-ylcarbonyl)benzyloxy]phenyl}-1-(tetrahydrothiopyran-4-yl)benzimidazole-5-carboxylic acid hydrochloride] | 29
11 | CC(C)NC(=O)c1ccc(-c2ccc(Cl)cc2)c(COc2ccc(-c3nc4cc(C(=O)O)ccc4n3C3CCSCC3)c(F)c2)c1 [Example 418, 2-{4-[2-(4-chlorophenyl)-5-(isopropylcarbamoyl)benzyloxy]-2-fluorophenyl}-1-(tetrahydrothiopyran-4-yl)benzimidazole-5-carboxylic acid hydrochloride] | 16
12 | O=C(O)c1ccc2c(c1)nc(-c1ccc(OCc3cc(N4CCCC4=O)ccc3-c3ccc(Cl)cc3)cc1F)n2C1CCSCC1 [Example 419, 2-{4-[2-(4-chlorophenyl)-5-(2-oxopyrrolidin-1-yl)benzyloxy]-2-fluorophenyl}-1-(tetrahydrothiopyran-4-yl)benzimidazole-5-carboxylic acid hydrochloride] | 21
13 | CC(C)NC(=O)c1ccc(-c2ccc(Cl)cc2)c(COc2ccc(-c3nc4cc(C(=O)O)ccc4n3N3CCCCC3)c(F)c2)c1 [Example 420, 2-{4-[2-(4-chlorophenyl)-5-(isopropylcarbamoyl)benzyloxy]-2-fluorophenyl}-1-piperidinobenzimidazole-5-carboxylic acid hydrochloride] | 15
14 | O=C(O)c1ccc2c(c1)nc(-c1ccc(OCc3cc(C(=O)N4CCCC4)ccc3-c3ccc(Cl)cc3)cc1F)n2N1CCCCC1 [Example 421, 2-{4-[2-(4-chlorophenyl)-5-(pyrrolidin-1-ylcarbonyl)benzyloxy]-2-fluorophenyl}-1-piperidinobenzimidazole-5-carboxylic acid] | 17
15 | O=C(O)c1ccc2c(c1)nc(-c1ccc(OCc3cc(C4=NCCN4)ccc3-c3ccc(Cl)cc3)cc1F)n2C1CCCCC1 [Example 422, 2-{4-[2-(4-chlorophenyl)-5-(2-imidazolin-2-yl)benzyloxy]-2-fluorophenyl}-1-cyclohexylbenzimidazole-5-carboxylic acid dihydrochloride] | 17
16 | O=C(O)c1ccc2c(c1)nc(-c1ccc(OCc3cc(N4CCOC4=O)ccc3-c3ccc(Cl)cc3)cc1F)n2C1CCCCC1 [Example 423, 2-{4-[2-(4-chlorophenyl)-5-(2-oxooxazolidin-3-yl)benzyloxy]-2-fluorophenyl}-1-cyclohexylbenzimidazole-5-carboxylic acid hydrochloride] | 17
17 | O=C(O)c1ccc2c(c1)nc(-c1ccc(OCc3cc(N4CCNC4=O)ccc3-c3ccc(Cl)cc3)cc1F)n2C1CCCCC1 [Example 424, 2-{4-[2-(4-chlorophenyl)-5-(2-oxoimidazolidin-1-yl)benzyloxy]-2-fluorophenyl}-1-cyclohexylbenzimidazole-5-carboxylic acid hydrochloride] | 20
18 | O=C(O)c1ccc2c(c1)nc(-c1ccc(OCc3cc(NC4=NCCO4)ccc3-c3ccc(Cl)cc3)cc1F)n2C1CCCCC1 [Example 425, 2-{4-[2-(4-chlorophenyl)-5-(2-oxazolin-2-ylamino)benzyloxy]-2-fluorophenyl}-1-cyclohexylbenzimidazole-5-carboxylic acid dihydrochloride] | 26
19 | CN(C)C(=O)COCc1nc(-c2ccc(F)cc2)c(COc2ccc(-c3nc4cc(C(=O)O)ccc4n3C3CCCCC3)cc2)s1 [Example 426, 2-{4-[{2-[{(dimethylcarbamoyl)methoxy}methyl]-4-(4-fluorophenyl)thiazol-5-yl}methoxy]phenyl}-1-cyclohexylbenzimidazole-5-carboxylic acid hydrochloride] | 53
20 | O=C(O)c1ccc2c(c1)nc(-c1ccc(OCc3sc(CN4CCC(O)CC4)nc3-c3ccc(F)cc3)cc1)n2C1CCCCC1 [Example 427, 2-{4-[{4-(4-fluorophenyl)-2-(4-hydroxypiperidin-1-ylmethyl)thiazol-5-yl}methoxy]phenyl}-1-cyclohexylbenzimidazole-5-carboxylic acid dihydrochloride] | 20
21 | NC(=O)COCc1nc(-c2ccc(F)cc2)c(COc2ccc(-c3nc4cc(C(=O)O)ccc4n3C3CCCCC3)cc2)s1 [Example 428, 2-{4-[{4-(4-fluorophenyl)-2-[(carbamoylmethoxy)methyl]thiazol-5-yl}methoxy]phenyl}-1-cyclohexylbenzimidazole-5-carboxylic acid hydrochloride] | 26
22 | CNC(=O)c1nc(-c2ccc(F)cc2)c(COc2ccc(-c3nc4cc(C(=O)O)ccc4n3C3CCCCC3)c(F)c2)s1 [Example 429, 2-{4-[{4-(4-fluorophenyl)-2-(methylcarbamoyl)thiazol-5-yl}methoxy]-2-fluorophenyl}-1-cyclohexylbenzimidazole-5-carboxylic acid hydrochloride] | 17
23 | O=C(O)c1ccc2c(c1)nc(-c1ccc(OCc3sc(C(=O)NCCO)nc3-c3ccc(F)cc3)cc1F)n2C1CCCCC1 [Example 430, 2-{4-[{4-(4-fluorophenyl)-2-{(2-hydroxyethyl)carbamoyl}thiazol-5-yl}methoxy]-2-fluorophenyl}-1-cyclohexylbenzimidazole-5-carboxylic acid hydrochloride] | 17
24 | CN(C)C(=O)c1cc(COc2ccc(-c3nc4cc(C(=O)O)ccc4n3C3CCCCC3)c(F)c2)c(-c2ccc(F)cc2)s1 [Example 431, 2-{4-[{2-(4-fluorophenyl)-5-(dimethylcarbamoyl)thiophen-3-yl}methoxy]-2-fluorophenyl}-1-cyclohexylbenzimidazole-5-carboxylic acid hydrochloride] | 15
25 | CC(C)NC(=O)c1cc(COc2ccc(-c3nc4cc(C(=O)O)ccc4n3C3CCCCC3)c(F)c2)c(-c2ccc(F)cc2)s1 [Example 432, 2-{4-[{2-(4-fluorophenyl)-5-(isopropylcarbamoyl)thiophen-3-yl}methoxy]-2-fluorophenyl}-1-cyclohexylbenzimidazole-5-carboxylic acid hydrochloride] | 22
26 | O=C(O)c1ccc2c(c1)nc(-c1ccc(OCc3cc(C(=O)N4CCC(O)CC4)sc3-c3ccc(F)cc3)cc1F)n2C1CCCCC1 [Example 433, 2-{4-[{2-(4-fluorophenyl)-5-(4-hydroxypiperidin-1-ylcarbonyl)thiophen-3-yl}methoxy]-2-fluorophenyl}-1-cyclohexylbenzimidazole-5-carboxylic acid hydrochloride] | 14
27 | O=C(O)c1ccc(-c2ccc(Cl)cc2COc2ccc(-c3nc4cc(-c5nnn[nH]5)ccc4n3C3CCCCC3)c(F)c2)cc1 [Example 435, 2-{4-[2-(4-carboxyphenyl)-5-chlorobenzyloxy]-2-fluorophenyl}-1-cyclohexyl-5-tetrazol-5-ylbenzimidazole hydrochloride] | 12
